{"source": "patent US11246929B2", "about": "“Combination of a protein kinase inhibitor and an additional chemotherapeutic agent” (Merck Patent GmbH, priority 2016, dated 2022)", "key": {"SKNSH": {"tested_on": "SKNSH", "assay": "SRB growth inhibition, 93 cell lines panel", "conditions": "Homo sapiens, SK-N-SH, read-out: GI50 of etoposide (±Compound 1)"}, "COLO678": {"tested_on": "COLO678", "assay": "Single agent activity, panel of 81 cancer cell lines plus PBMC", "format": "cell-based", "conditions": "Homo sapiens, COLO-678"}, "SKHEP1": {"tested_on": "SKHEP1", "assay": "cells", "conditions": "Homo sapiens, SK-HEP1, read-out: GI50 of etoposide (±Compound 1)", "procedure": "(§1) 90 μl of cells, after a 48-hour pre-growth period, were treated by mixing with 10 μl of the compound-containing media (resulting in a final DMSO concentration of 0.1%).\n(§2) This is the drug concentration causing a 50% reduction compared to the net protein increase in control cells during the drug incubation period. In other words, G150 is IC50 corrected for time zero. […] TGI was calculated from Ti=Tz. […] It was calculated as 100×[(Ti−Tz)/Tz]=−50."}, "HEPG2": {"tested_on": "HEPG2", "assay": "cells", "conditions": "Homo sapiens, HepG2, read-out: GI50 of etoposide (±Compound 1)", "procedure": "as §1, §2"}, "PLCPRF5": {"tested_on": "PLCPRF5", "assay": "cells", "conditions": "Homo sapiens, PLC-PRF-5, read-out: GI50 of etoposide (±Compound 1)", "procedure": "as §1, §2"}, "MT3": {"tested_on": "MT3", "assay": "cells", "conditions": "MT-3, read-out: GI50 of etoposide (±Compound 1)", "procedure": "as §1, §2"}, "SNB75": {"tested_on": "SNB75", "assay": "SRB growth inhibition, 93 cell lines panel", "conditions": "Homo sapiens, SNB-75, read-out: GI50 of etoposide (±Compound 1)"}, "T24": {"tested_on": "T24", "assay": "cells", "conditions": "Homo sapiens, T-24, read-out: GI50 of etoposide (±Compound 1)"}, "MO59K (DNA-PK wild type)": {"tested_on": "MO59K (DNA-PK wild type)", "assay": "AlamarBlue viability assay", "format": "cell-based, human"}, "[1]": {"tested_on": "myeloid and lymphoid cells", "assay": "Hematology study, blood cell counts in immunocompetent mice", "format": "in vivo, mouse", "conditions": "addition of Compound 1 to etoposide/cisplatin", "source_text": "For efficacy xenograft study 1014-1-58/BKU00105 female CD1 nu/nu mice [internal Batch ID 04108; Charles River Laboratories, Sulzfeld, Germany], aged 6-8 weeks, were used. For the hematology study 1015-1-3/BKU00106 immunocompetent female CD1 mice [internal Batch ID1406; Janvier Labs, Genest-Saint-Isle, France], aged 12 weeks were used. The mice were acclimatized to the housing conditions for 1 week. They were kept in groups of 10 in polysulfone cages Type III (42.5×26.6×15.5 cm; Techniplast, Hohenpeissenberg). Bedding consisted of aspen chips (E. Becker, Castrop-Rauxel). Room temperature was 24+/−2° C. and relative humidity was 50+/−10% at 15 air changes per hour. Drinking water (provided ad libitum) was supplemented with 1 mg/mL Chlorine and was adjusted to a pH of 6.5 with HCl. […]\nThe hematology data were evaluated by RM-ANOVA and Bonferroni multiple comparisons post test comparing the blood cell counts of the respective combination groups to the blood cell counts of the SoC only treatment group.\nIn parallel with the antitumor effect of the etoposide/cisplatin/Compound 1 combination, the effect on myeloid and lymphoid cells was investigated in immunocompetent mice (refer to ONC1015-1-3AZ). […] Blood cell count was determined under treatment (days 5 and 11) and during recovery (days 18 and 24)."}, "[2]": {"tested_on": "HCT116 (colon, adeno) xenograft", "assay": "Xenograft, fractionated IR plus Compound 1, time to TV400%", "format": "in vivo, mouse", "procedure": "(§3) The therapeutic relevance of DNA-PK inhibition by Compound 1 was investigated in vivo in combination with ionizing radiation (IR), a clinically established DSB-inducing treatment. Compound 1 was tested for activity in six xenograft mouse models of human cancer. The models were chosen from different cancer indications (colon, lung, head and neck, pancreatic), and histological subtypes (adeno, squamous, large cell). Ionizing radiation was administered using a fractionated schedule of 2 Gy per day administered over five consecutive days (total radiation dose=10 Gy). Compound 1 was given orally 10 min prior to each fraction of radiation (ONC397-1-2AZ, ONC397-1-3AZ, ONC397-1-4AZ, ONC397-1-5AZ, ONC397-1-8AZ).\n(§4) Radiotherapy enhancing effect of Compound 1 was quantified across the tested models by the time to reaching 400% initial volume for the 150 mg/kg study arms. The resulting Kaplan-Meier plots were compared by the log-rank test."}, "[3]": {"tested_on": "NCI-H460 (lung, large cell) xenograft", "assay": "Xenograft, fractionated IR plus Compound 1, time to TV400%", "format": "in vivo, mouse", "procedure": "as §3, §4"}, "[4]": {"tested_on": "A549 (lung, adeno) xenograft", "assay": "Xenograft, fractionated IR plus Compound 1, time to TV400%", "format": "in vivo, mouse", "procedure": "as §3, §4"}, "[5]": {"tested_on": "Capan-1 (pancreas, adeno) xenograft", "assay": "Xenograft, fractionated IR plus Compound 1, time to TV400%", "format": "in vivo, mouse", "procedure": "as §3, §4"}, "[6]": {"tested_on": "BxPC3 (pancreas, adeno) xenograft", "assay": "Xenograft, fractionated IR plus Compound 1, time to TV400%", "format": "in vivo, mouse", "procedure": "as §3, §4"}, "DNA-PK": {"target": "DNA-PK (Homo sapiens, UniProt P78527)", "assay": "crystallographic and enzyme kinetics studies", "format": "biochemical"}, "[7]": {"conditions": "IR 10 Gy (5 x 2 Gy) + Compound 1 150 mg/kg po"}, "[8]": {"conditions": "IR 10 Gy (5 x 2 Gy) + Compound 1 150 mg/kg po 10 min prior to each fraction"}}, "data": [{"smiles": "COc1cc([C@@H]2c3cc4c(cc3[C@@H](O[C@@H]3O[C@@H]5CO[C@@H](C)O[C@H]5[C@H](O)[C@H]3O)[C@H]3COC(=O)[C@H]23)OCO4)cc(OC)c1O", "note": "[Etoposide]", "values": [{"measurement": "GI50", "setting": "SKNSH", "result": 265, "unit": "nM"}, {"measurement": "GI50", "setting": "COLO678", "result": "> 10000", "unit": "nM"}, {"measurement": "GI50", "setting": "SKHEP1", "result": 83, "unit": "nM"}, {"measurement": "GI50", "setting": "HEPG2", "result": 806, "unit": "nM"}, {"measurement": "GI50", "setting": "PLCPRF5", "result": 6250, "unit": "nM"}, {"measurement": "GI50", "setting": "MT3", "result": 609, "unit": "nM"}, {"measurement": "GI50", "setting": "SNB75", "result": 3790, "unit": "nM"}, {"measurement": "GI50", "setting": "T24", "result": 2530, "unit": "nM"}]}, {"smiles": "COc1ccc([C@@H](O)c2cc(-c3ncnc4cc(N5CCOCC5)ccc34)c(F)cc2Cl)nn1", "note": "[Compound 1, (S)-[2-chloro-4-fluoro-5-(7-morpholin-4-yl-quinazolin-4-yl)-phenyl]-(6-methoxy-pyridazin-3-yl)-methanol]", "values": [{"measurement": "inhibition of viability, combination with etoposide", "setting": "MO59K (DNA-PK wild type)", "result": "enhanced inhibition of viability"}, {"measurement": "potentiation of etoposide, Compound 1 in comparison to VX-984", "setting": "MO59K (DNA-PK wild type); compound incubation for 72 h", "result": "compares favorably"}, {"measurement": "blood cell reduction and recovery", "setting": "[1]", "result": "did not significantly affect blood cell reduction nor the recovery phase"}, {"measurement": "Enhancement Ratio [combi/IR only]", "setting": "[2]; [7]", "result": 1.5}, {"measurement": "median time to TV400% Combi", "setting": "[2]; [8]", "result": 46, "unit": "days"}, {"measurement": "Enhancement Ratio [combi/IR only]", "setting": "[3]; [7]", "result": 2.6}, {"measurement": "median time to TV400% Combi", "setting": "[3]; [8]", "result": 45, "unit": "days"}, {"measurement": "Enhancement Ratio [combi/IR only]", "setting": "[4]; [7]", "result": 1.5}, {"measurement": "median time to TV400% Combi", "setting": "[4]; [8]", "result": 42, "unit": "days"}, {"measurement": "Enhancement Ratio [combi/IR only]", "setting": "[5]; [7]", "result": 2}, {"measurement": "median time to TV400% Combi", "setting": "[5]; [8]", "result": 132, "unit": "days"}, {"measurement": "Enhancement Ratio [combi/IR only]", "setting": "[6]; [7]", "result": 2}, {"measurement": "median time to TV400% Combi", "setting": "[6]; [8]", "result": 73.5, "unit": "days"}, {"measurement": "inhibition of DNA-PK, mode", "setting": "DNA-PK", "result": "potent and selective ATP-competitive inhibitor"}]}]}
